The values below come from patent US20130109734A1 (Metabolex, Inc., priority 2010, published 2013).

Molecules are shown by their SMILES.

Test [1] addresses T1, human GPR120 (Homo sapiens, UniProt Q5NUL3).
T1 construct: host or cells: HEK293 cells co-expressing Gqi5
T1 sequence (Q5NUL3 1-361): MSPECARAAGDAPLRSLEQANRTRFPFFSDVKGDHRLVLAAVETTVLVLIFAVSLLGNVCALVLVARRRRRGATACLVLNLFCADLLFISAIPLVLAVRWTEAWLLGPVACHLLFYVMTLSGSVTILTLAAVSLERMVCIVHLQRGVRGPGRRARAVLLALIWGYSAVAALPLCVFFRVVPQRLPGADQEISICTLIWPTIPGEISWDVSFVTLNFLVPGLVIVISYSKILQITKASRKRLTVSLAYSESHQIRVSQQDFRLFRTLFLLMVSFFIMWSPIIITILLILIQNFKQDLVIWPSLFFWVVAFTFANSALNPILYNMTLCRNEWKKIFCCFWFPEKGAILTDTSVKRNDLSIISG
Briefly: Intracellular Ca2+ assay in human GPR120 stable cell line (HEK293 co-expressing Gqi5), Flexstation. The following applies: % activity at 5 μM compared to the maximal activity of GW9508 at 6.7 μM (=100%); human GPR120 cells, Ca2+ fluorescence. It counts as cell-based. In short, it runs like this: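 HEK293 cells stably co-expressing Gqi5 and Flag-tagged human GPR120, loaded with Calcium 4 dye in HBSS/HEPES pH 7.4 at 37 °C; compounds at eight concentrations, 0.00001–20 μM, fluorescence (485/525 nm) read 90 s. EC50 from Max−Min change; percent activity relative to GW9508 maximum at 6.7 μM.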

The subject of test [2] is C57BL/6J mice. In words: Intra peritoneal glucose tolerance test (IPGTT). Type of test: in vivo. The following applies: Mus musculus, 2 h; C57BL/6J mice fasted overnight, compound 30 mg/kg oral gavage at -30 min, 2 g/kg glucose intra peritoneally, incremental AUC 0-120 min vs vehicle; read-out: % reduction IPGTT at 30 mg/kg. As to the method:
8-10 week old male C57BL/6J mice (Harlan) were maintained on regular chow diet from Harlan (2018 Teklad Global). On the day before the experiment mice were fasted overnight, then randomized into groups (n=10-15) to receive the tested GPR120 agonist at doses ranging from 100 mg/kg or the vehicle (1% CMC, 2% TWEEN 80). Compounds were delivered orally via gavage at 10 mL/kg. Blood glucose levels were measured by glucometer (Ascensia Elite XL, Bayer) at time −30 minutes before administration of compound. Blood glucose was measured again after 30 minutes (at time 0), and then the mice were dosed intra peritoneally with 2 g/kg glucose at 10 mL/kg. Blood glucose measurements were taken 20, 40, 60, 90 and 120 minutes after glucose administration, by glucometer (Ascensia Elite XL, Bayer).
Glucose levels were plotted against time, and the incremental area under the curve (AUC) of the glucose excursion was determined from time 0 using Graphpad Prism 5.01. Outliers were excluded using Tukey's box plot outlier test, and statistical significance of differences in AUC of compound treatment compared to vehicle was determined by non-parametric Kruskal-Wallis test with Dunn's post test.
The compounds were tested at 30 mg/kg and the levels of blood glucose were determined in the presence and absence of the tested compounds. The percentage of glucose reduction is reported. […]

`CC(Cc1ccc(OCc2cc(Cl)cc3c2OC(C)(C)C3)c(F)c1)C(=O)O` (stereo not shown) [Example 10, 3-(4-((5-chloro-2,2-dimethyl-2,3-dihydrobenzofuran-7-yl)methoxy)-3-fluorophenyl)-2-methylpropanoic acid]: in test [1], the “% Activity (GW9508 Reference Compound)” value is listed as 106.7955%. Further, the inhibition in vivo at 30 mg/kg in test [2] came to 30.7%.

Regarding `CC(Cc1ccc(OCc2cc(Cl)cc3c2OC(C)(C)C3)cc1)C(=O)O` (stereo not shown) [Example 13], in test [1], the “% Activity (GW9508 Reference Compound)” value turned out to be 119.0442%. For the same compound, in test [2], the inhibition in vivo at 30 mg/kg is 31%.
